Converted amounts (≈) assume the structure as drawn.
Tests used:
Format in all cases: cell-based
Klebsiella RO 30 = assay: MIC, in vitro dilution method, Klebsiella RO 30 (Table III); settings: RO30; Klebsiella RO 30; dilution method; read-out: MIC
Excerpt: (§1) The products of the invention have been studied as regards their pharmacological properties and, more especially, bacteriostatic action. This has been determined in vitro by the dilution method, and the study was on Gram negative strains.
(§2) Results, expressed in minimum inhibiting concentrations (MIC-- μg/ml), are collected in the following table (Table III).

Pseudomonas RL 112 = assay: MIC, in vitro dilution method, Pseudomonas RL 112 (Table III); settings: RL112
Excerpt: as §1, §2

Escherichia coli SOL 90 = assay: MIC, in vitro dilution method, Escherichia coli SOL 90 (Table III); settings: SOL90; Escherichia coli SOL 90; dilution method; read-out: MIC
Excerpt: as §1, §2

Enterobacter RO 154 = assay: MIC, in vitro dilution method, Enterobacter RO 154 (Table III); settings: RO154; Enterobacter RO 154; dilution method; read-out: MIC
Excerpt: as §1, §2

| Structure (SMILES) | MIC (Klebsiella RO 30) [µg/mL] | MIC (Pseudomonas RL 112) [µg/mL] | MIC (Escherichia coli SOL 90) [µg/mL] | MIC (Enterobacter RO 154) [µg/mL] |
| --- | --- | --- | --- | --- |
| CC(N)C(=O)Nc1ccc(C(=O)OCC2=C(C(=O)O)N3C(=O)C(NC(=O)C(=NOC4(C(=O)O)CCC4)c4csc(N)n4)C3[S+]([O-])C2)cc1 (centres unmarked) [42 818] | 0.125 (≈ 0.178 µM) | 4 (≈ 5.68 µM) | 0.125 (≈ 0.178 µM) | 4 (≈ 5.68 µM) |
| CC(C)(ON=C(C(=O)NC1C(=O)N2C(C(=O)O)=C(COC(=O)c3ccc(NC(=O)CCCN)cc3)C[S+]([O-])C12)c1csc(N)n1)C(=O)O (centres unmarked) [42 688] | 0.25 (≈ 0.354 µM) | 4 (≈ 5.67 µM) | 0.125 (≈ 0.177 µM) | 4 (≈ 5.67 µM) |
| Cc1cc(CN)ccc1C(=O)OCC1=C(C(=O)O)N2C(=O)C(NC(=O)C(=NOC3(C(=O)O)CCC3)c3csc(N)n3)C2[S+]([O-])C1 (centres unmarked) [42 849] | 0.125 (≈ 0.189 µM) | 4 (≈ 6.05 µM) | 0.125 (≈ 0.189 µM) | 2 (≈ 3.03 µM) |
| Cc1cc(CN)ccc1C(=O)OCC1=C(C(=O)O)N2C(=O)C(NC(=O)C(=NOC(C)(C)C(=O)O)c3csc(N)n3)C2[S+]([O-])C1 (centres unmarked) [42 848] | 0.125 (≈ 0.193 µM) | 4 (≈ 6.17 µM) | 0.125 (≈ 0.193 µM) | 2 (≈ 3.08 µM) |
| CC(C)(ON=C(C(=O)NC1C(=O)N2C(C(=O)O)=C(COC(=O)C3CCN(C(=O)CCN)CC3)C[S+]([O-])C12)c1csc(N)n1)C(=O)O (centres unmarked) [42 782] | 0.125 (≈ 0.183 µM) | 4 (≈ 5.85 µM) | 0.25 (≈ 0.366 µM) | 2 (≈ 2.93 µM) |
| NCC(=O)Nc1ccc(C(=O)SCC2=C(C(=O)O)N3C(=O)C(NC(=O)C(=NOC4(C(=O)O)CCC4)c4csc(N)n4)C3[S+]([O-])C2)cc1 (centres unmarked) [compound 42665] | 0.5 (≈ 0.708 µM) | 8 (≈ 11.3 µM) | 0.5 (≈ 0.708 µM) | 2 (≈ 2.83 µM) |
| CC(N)C(=O)Nc1nc(C(=O)OCC2=C(C(=O)O)N3C(=O)C(NC(=O)C(=NOC(C)(C)C(=O)O)c4csc(N)n4)C3[S+]([O-])C2)cs1 (centres unmarked) [42 857] | 1 (≈ 1.43 µM) | 8 (≈ 11.4 µM) | 0.5 (≈ 0.716 µM) | 8 (≈ 11.4 µM) |
| Cc1nc(NC(=O)CN)sc1C(=O)OCC1=C(C(=O)O)N2C(=O)C(NC(=O)C(=NOC(C)(C)C(=O)O)c3csc(N)n3)C2[S+]([O-])C1 (centres unmarked) [42 690] | 0.5 (≈ 0.716 µM) | 4 (≈ 5.72 µM) | 0.5 (≈ 0.716 µM) | 8 (≈ 11.4 µM) |
| CN(C(=O)CN)c1ccc(C(=O)OCC2=C(C(=O)O)N3C(=O)C(NC(=O)C(=NOC(C)(C)C(=O)O)c4csc(N)n4)C3[S+]([O-])C2)cc1 (centres unmarked) [42 657] | 0.25 (≈ 0.361 µM) | 8 (≈ 11.6 µM) | 0.25 (≈ 0.361 µM) | 4 (≈ 5.78 µM) |
| Cc1c(NC(=O)CCN)cccc1C(=O)OCC1=C(C(=O)O)N2C(=O)C(NC(=O)C(=NOC(C)(C)C(=O)O)c3csc(N)n3)C2[S+]([O-])C1 (centres unmarked) [42 586] | 0.25 (≈ 0.354 µM) | 4 (≈ 5.67 µM) | 0.25 (≈ 0.354 µM) | 16 (≈ 22.7 µM) |
| NCC(=O)Nc1cccc(C(=O)SCC2=C(C(=O)O)N3C(=O)C(NC(=O)C(=NOC4(C(=O)O)CCC4)c4csc(N)n4)C3[S+]([O-])C2)c1 (centres unmarked) [compound 42686] | 1 (≈ 1.42 µM) | 8 (≈ 11.3 µM) | 2 (≈ 2.83 µM) | 2 (≈ 2.83 µM) |
| NCCC(=O)Nc1ccc(C(=O)OCC2=C(C(=O)O)N3C(=O)C(NC(=O)C(=NOC4(C(=O)O)CCC4)c4csc(N)n4)C3[S+]([O-])C2)cc1 (centres unmarked) [42 658] | 0.125 (≈ 0.178 µM) | 4 (≈ 5.68 µM) | 0.125 (≈ 0.178 µM) | 8 (≈ 11.4 µM) |
| CC(C)(ON=C(C(=O)NC1C(=O)N2C(C(=O)O)=C(COC(=O)c3cccc(NC(=O)CCCN)c3)C[S+]([O-])C12)c1csc(N)n1)C(=O)O (centres unmarked) [42 687] | 1 (≈ 1.42 µM) | 8 (≈ 11.3 µM) | 2 (≈ 2.83 µM) | 4 (≈ 5.67 µM) |
| CC(C)(ON=C(C(=O)NC1C(=O)N2C(C(=O)O)=C(COC(=O)c3ccc(NC(=O)CCCCN)cc3)C[S+]([O-])C12)c1csc(N)n1)C(=O)O (centres unmarked) [42 689] | 0.25 (≈ 0.347 µM) | 4 (≈ 5.56 µM) | 0.125 (≈ 0.174 µM) | 4 (≈ 5.56 µM) |
| CNCC(=O)Nc1cccc(C(=O)OCC2=C(C(=O)O)N3C(=O)C(NC(=O)C(=NOC(C)(C)C(=O)O)c4csc(N)n4)C3[S+]([O-])C2)c1 (centres unmarked) [42 583] | 0.5 (≈ 0.723 µM) | 8 (≈ 11.6 µM) | 1 (≈ 1.45 µM) | 4 (≈ 5.78 µM) |
| CC(C)(ON=C(C(=O)NC1C(=O)N2C(C(=O)O)=C(COC(=O)c3ccc(CN)c(F)c3)C[S+]([O-])C12)c1csc(N)n1)C(=O)O (centres unmarked) [42 581] | 0.125 (≈ 0.192 µM) | 4 (≈ 6.13 µM) | 0.125 (≈ 0.192 µM) | 2 (≈ 3.06 µM) |
| CC(C)(CN)C(=O)SCC1=C(C(=O)O)N2C(=O)C(NC(=O)C(=NOC(C)(C)C(=O)O)c3csc(N)n3)C2[S+]([O-])C1 (centres unmarked) [compound 42663] | 1 (≈ 1.62 µM) | 8 (≈ 13 µM) | 4 (≈ 6.49 µM) | 4 (≈ 6.49 µM) |

— patent US4656166A, “Antibiotic compounds derived from cephalosporins, process for their production and pharmaceutical compositions” (Sanofi, priority 1983, dated 1987)
